Test results: PubChem BioAssay AID652266 (Broad Institute, 2013)
Calls of active or inactive are those of the source. How the calls were made is not given here.

Biological target: Protein disulfide-isomerase A3 (Homo sapiens) (UniProt P30101)
Experiment: inhibitors of thiol isomerase ERp57, dose response, selectivity assay, biochemical, dry powder samples, plate reader (AID 652266)
Conditions: purified ERp57 enzyme

Chain of Protein disulfide-isomerase A3 (Homo sapiens) (P30101 whole entry, looked up): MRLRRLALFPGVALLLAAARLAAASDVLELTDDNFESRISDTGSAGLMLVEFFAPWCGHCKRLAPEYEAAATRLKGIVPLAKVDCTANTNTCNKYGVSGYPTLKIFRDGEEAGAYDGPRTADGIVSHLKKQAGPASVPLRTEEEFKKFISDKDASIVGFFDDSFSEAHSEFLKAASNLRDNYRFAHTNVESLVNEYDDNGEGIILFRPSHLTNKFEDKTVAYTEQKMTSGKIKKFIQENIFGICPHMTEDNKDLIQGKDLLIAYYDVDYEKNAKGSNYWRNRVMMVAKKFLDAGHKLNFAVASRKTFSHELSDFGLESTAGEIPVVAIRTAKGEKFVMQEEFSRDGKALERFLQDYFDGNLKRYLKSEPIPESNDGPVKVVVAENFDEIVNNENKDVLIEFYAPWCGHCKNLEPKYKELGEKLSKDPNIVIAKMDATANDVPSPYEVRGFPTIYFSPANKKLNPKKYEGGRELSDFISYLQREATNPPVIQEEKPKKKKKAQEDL

Compound	AC50
CCOC(=O)C1(CCOc2ccccc2)CCN(C(=O)c2ccc(O)c(Cl)c2)CC1	> 30 µM (inactive)
CCOC(=O)C1(CCOc2ccccc2)CCN(Cc2ccc(OC)c(Cl)c2)CC1	> 30 µM (inactive)
CCOC(=O)C1(CCOc2ccccc2)CCN(Cc2ccc(O)cc2)CC1	> 30 µM (inactive)
CCOC(=O)C1(CCOc2ccccc2)CCN(Cc2ccc(O)c(Cl)c2)CC1	> 30 µM (inactive)
CCOC(=O)c1c(CN2CCN(CCO)CC2)n(-c2ccccc2)c2cc(Br)c(O)cc12	> 30 µM (inactive)
CCN(C)C(=O)C1(CCOc2ccccc2)CCN(Cc2ccc(O)c(Cl)c2)CC1	> 30 µM (inactive)
C/C1=C\C[C@H](OC(=O)c2ccc(O)cc2)/C(C)=C/[C@@H](O)C(C)(C)CCC1	> 30 µM (inactive)
O=C(Nc1ccccc1)C1(CCOc2ccccc2)CCN(Cc2ccc(O)c(Cl)c2)CC1	> 30 µM (inactive)
CC(C)OC(=O)C1(CCOc2ccccc2)CCN(Cc2ccc(O)c(Cl)c2)CC1	> 30 µM (inactive)
C/C1=C\[C@@H](O)C(C)(C)CCCC2(C)OC2C[C@@H]1OC(=O)c1ccc(O)cc1 (some centres not stated)	> 30 µM (inactive)
CC(C)(C)OC(=O)C1(CCOc2ccccc2)CCN(Cc2ccc(O)c(Cl)c2)CC1	> 30 µM (inactive)
O=C(NC1CCCC1)C1(CCOc2ccccc2)CCN(Cc2ccc(O)c(Cl)c2)CC1	> 30 µM (inactive)
